Results taken from the supplement of paper PMC6045584.
± gives the standard deviation of the averaged measurements.

Columns and labels:
[1] = compound: CC(=O)O[C@H]1C(=O)[C@@]2(C)[C@H]([C@H](OC(=O)c3ccccc3)[C@]3(O)C[C@H](OC(=O)[C@H](O)[C@@H](NC(=O)c4ccccc4)c4ccccc4)C(C)=C1C3(C)C)[C@]1(OC(C)=O)CO[C@@H]1C[C@@H]2O [PACLITAXEL]; experiment: surviving fraction relative to DMSO-only wells; higher = less growth inhibition; details: exposure time: 5 days
How it was run: (§1)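 Inhibitors were tested at 0.5, 1, 5, 10, 50, 100, 500 and 1000 nM, applied continuously for five days beginning 24 hours after log-phase tumour cells were seeded at 250–500 per well in 384-well plates. CellTiter-Glo luminescence served as the viability measure, expressed as surviving fraction against the median of DMSO-only wells. Each line, screened three times, was kept only with replicate Pearson r >0.7 and median Z' >0.3.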

[2] = compound: CC(=O)c1c(C)c2cnc(Nc3ccc(N4CCNCC4)cn3)nc2n(C2CCCC2)c1=O; experiment: as above; details: exposure time: 5 days
How it was run: as §1

Test System | surviving fraction ([1]; 0.5 nM) | surviving fraction ([1]; 1 nM) | surviving fraction ([1]; 5 nM) | surviving fraction ([1]; 10 nM) | surviving fraction ([1]; 50 nM) | surviving fraction ([1]; 100 nM) | surviving fraction ([1]; 500 nM) | surviving fraction ([1]; 1000 nM) | surviving fraction ([2]; 0.5 nM) | surviving fraction ([2]; 1 nM) | surviving fraction ([2]; 5 nM) | surviving fraction ([2]; 10 nM) | surviving fraction ([2]; 50 nM) | surviving fraction ([2]; 100 nM) | surviving fraction ([2]; 500 nM) | surviving fraction ([2]; 1000 nM)
JURKAT HAEMATOPOIETIC AND LYMPHOID TISSUE | 1.01 ± 0.024 | 0.675 ± 0.042 | 0.0347 ± 0.0021 | 0.03 ± 0.001 | 0.0297 ± 0.0011 | 0.0237 ± 0.00058 | 0.02 ± 0.001 | 0.0213 ± 0.00058 | 1.09 ± 0.017 | 1.11 ± 0.021 | 1.0573 ± 0.00058 | 1.07 ± 0.033 | 1.03 ± 0.034 | 1.05 ± 0.013 | 0.847 ± 0.032 | 0.793 ± 0.018
SYO1 SYNOVIAL | 0.828 ± 0.041 | 0.592 ± 0.015 | 0.107 ± 0.0096 | 0.0752 ± 0.0059 | 0.056 ± 0.0057 | 0.0522 ± 0.0059 | 0.0456 ± 0.0087 | 0.048 ± 0.009 | 0.989 ± 0.024 | 0.966 ± 0.021 | 0.984 ± 0.024 | 1.02 ± 0.054 | 0.995 ± 0.018 | 0.98 ± 0.066 | 0.792 ± 0.061 | 0.706 ± 0.055
COLO320DM LARGE INTESTINE | 1.12 ± 0.1 | 1.1 ± 0.091 | 1.1 ± 0.018 | 1.03 ± 0.18 | 0.525 ± 0.033 | 0.292 ± 0.014 | 0.161 ± 0.015 | 0.116 ± 0.0099 | 1.084 ± 0.0093 | 1.08 ± 0.04 | 1.12 ± 0.038 | 1.1 ± 0.039 | 1.08 ± 0.065 | 1.05 ± 0.048 | 0.78 ± 0.061 | 0.735 ± 0.039
JIMT1 BREAST | 0.618 ± 0.028 | 0.293 ± 0.024 | 0.16 ± 0.0026 | 0.119 ± 0.011 | 0.0905 ± 0.0083 | 0.0907 ± 0.0037 | 0.0727 ± 0.008 | 0.0808 ± 0.0025 | 0.959 ± 0.013 | 0.9905 ± 0.0018 | 0.993 ± 0.024 | 0.964 ± 0.027 | 1.1 ± 0.03 | 1 ± 0.031 | 1.05 ± 0.014 | 1.01 ± 0.032
SUM149 BREAST | 0.809 ± 0.053 | 0.452 ± 0.11 | 0.0573 ± 0.004 | 0.0463 ± 0.0085 | 0.0357 ± 0.00058 | 0.0373 ± 0.0038 | 0.0337 ± 0.006 | 0.0307 ± 0.0023 | 1.15 ± 0.042 | 1.09 ± 0.049 | 1.04 ± 0.076 | 0.943 ± 0.11 | 1.1 ± 0.065 | 1.14 ± 0.064 | 0.871 ± 0.024 | 0.88 ± 0.07
93VU HEADNECK | 0.972 ± 0.067 | 0.752 ± 0.059 | 0.326 ± 0.015 | 0.266 ± 0.014 | 0.157 ± 0.011 | 0.134 ± 0.0064 | 0.135 ± 0.018 | 0.132 ± 0.0017 | 1.09 ± 0.1 | 1.04 ± 0.09 | 1.12 ± 0.049 | 1.07 ± 0.025 | 1.18 ± 0.12 | 1.14 ± 0.14 | 1.17 ± 0.038 | 1.19 ± 0.045
CASKI CERVIX | 0.857 ± 0.054 | 0.619 ± 0.029 | 0.0537 ± 0.011 | 0.0343 ± 0.00058 | 0.037 ± 0.005 | 0.0387 ± 0.0067 | 0.0313 ± 0.005 | 0.0303 ± 0.0045 | 1.02 ± 0.062 | 0.971 ± 0.028 | 0.999 ± 0.038 | 0.977 ± 0.015 | 1.09 ± 0.034 | 1.08 ± 0.019 | 1.05 ± 0.049 | 1.05 ± 0.028
A549 LUNG | 0.982 ± 0.013 | 1.04 ± 0.031 | 0.369 ± 0.011 | 0.234 ± 0.0055 | 0.182 ± 0.011 | 0.186 ± 0.01 | 0.172 ± 0.0087 | 0.179 ± 0.0038 | 1.03 ± 0.035 | 1.02 ± 0.018 | 1.05 ± 0.0087 | 0.993 ± 0.039 | 1.07 ± 0.063 | 1.12 ± 0.042 | 1.154 ± 0.007 | 1.116 ± 0.011
HT1080 SOFT TISSUE | 0.772 ± 0.034 | 0.533 ± 0.0091 | 0.133 ± 0.019 | 0.0517 ± 0.0035 | 0.0427 ± 0.0031 | 0.031 ± 0.0017 | 0.0293 ± 0.0025 | 0.0317 ± 0.00058 | 0.997 ± 0.026 | 1.04 ± 0.017 | 1.05 ± 0.017 | 1.03 ± 0.019 | 1.022 ± 0.0036 | 1 ± 0.041 | 0.9707 ± 0.0071 | 0.958 ± 0.024
SUM44 BREAST | 0.927 ± 0.021 | 0.515 ± 0.041 | 0.403 ± 0.0066 | 0.278 ± 0.0095 | 0.241 ± 0.019 | 0.213 ± 0.0074 | 0.218 ± 0.0062 | 0.202 ± 0.011 | 0.984 ± 0.044 | 1.01 ± 0.028 | 1.03 ± 0.062 | 0.956 ± 0.044 | 1.08 ± 0.1 | 1.05 ± 0.043 | 1.08 ± 0.068 | 1.086 ± 0.0082
NY BONE | 0.938 ± 0.019 | 0.334 ± 0.015 | 0.0363 ± 0.0075 | 0.0327 ± 0.005 | 0.0363 ± 0.0055 | 0.026 ± 0.0076 | 0.0307 ± 0.0038 | 0.0293 ± 0.0057 | 1.02 ± 0.024 | 1.03 ± 0.065 | 1.05 ± 0.057 | 1.04 ± 0.018 | 1.12 ± 0.023 | 1.06 ± 0.043 | 1.04 ± 0.049 | 1.02 ± 0.068
VCAP PROSTATE | 0.846 ± 0.11 | 0.666 ± 0.052 | 0.179 ± 0.038 | 0.0997 ± 0.0076 | 0.077 ± 0.015 | 0.0693 ± 0.0068 | 0.0677 ± 0.022 | 0.0697 ± 0.0086 | 1.08 ± 0.018 | 1.08 ± 0.025 | 1.14 ± 0.076 | 1.17 ± 0.053 | 1.1 ± 0.13 | 1.18 ± 0.025 | 0.829 ± 0.11 | 0.773 ± 0.0044
HCC78 LUNG | 0.846 ± 0.3 | 0.486 ± 0.046 | 0.16 ± 0.036 | 0.104 ± 0.021 | 0.0717 ± 0.019 | 0.077 ± 0.011 | 0.0673 ± 0.013 | 0.1 ± 0.018 | 1.03 ± 0.14 | 0.975 ± 0.063 | 1.29 ± 0.046 | 0.899 ± 0.2 | 1.02 ± 0.25 | 1.17 ± 0.14 | 0.619 ± 0.11 | 0.579 ± 0.041
SKBR3 BREAST | 0.925 ± 0.13 | 0.413 ± 0.061 | 0.165 ± 0.0059 | 0.157 ± 0.02 | 0.135 ± 0.023 | 0.139 ± 0.013 | 0.123 ± 0.015 | 0.136 ± 0.028 | 1.04 ± 0.16 | 1.12 ± 0.066 | 0.958 ± 0.06 | 0.987 ± 0.22 | 0.923 ± 0.056 | 0.892 ± 0.12 | 0.82 ± 0.085 | 0.855 ± 0.067
HS57T BREAST | 0.773 ± 0.045 | 0.478 ± 0.058 | 0.0727 ± 0.0025 | 0.0563 ± 0.0021 | 0.0457 ± 0.0042 | 0.0463 ± 0.0065 | 0.0353 ± 0.0021 | 0.0403 ± 0.007 | 1.02 ± 0.025 | 1.08 ± 0.097 | 1.11 ± 0.052 | 1.1 ± 0.031 | 1.16 ± 0.043 | 1.11 ± 0.032 | 0.954 ± 0.055 | 0.96 ± 0.039
MG63 BONE | 0.901 ± 0.049 | 0.881 ± 0.021 | 0.263 ± 0.016 | 0.095 ± 0.01 | 0.0463 ± 0.0055 | 0.038 ± 0.0044 | 0.0287 ± 0.0015 | 0.03 ± 0.002 | 1.033 ± 0.0085 | 1.01 ± 0.044 | 1.039 ± 0.0042 | 1.04 ± 0.021 | 1.07 ± 0.035 | 1.07 ± 0.031 | 0.914 ± 0.02 | 0.868 ± 0.034
